Reference: patent publication US12246068B2, “Enzymatically activatable peptide-redox modulator conjugates and use thereof” (BRANDEIS UNIVERSITY, priority 2017, dated 2025)
Where a SMILES comes first, the peptide text is derived from it. [ ]: non-standard residue; d: D form. The star is where a group is joined. X1 = O=C(CCC[P+](c1ccccc1)(c1ccccc1)c1ccccc1)*; d(pY) = N[C@H](Cc1ccc(OP(=O)(O)O)cc1)C(=O)O; pY = N[C@@H](Cc1ccc(OP(=O)(O)O)cc1)C(=O)O; NBD = O=[N+]([O-])c1ccc(*)c2nonc12; Cbz = O=C(OCc1ccccc1)*; βAla = NCCC(=O)O; CH2F = FC*

Columns and labels:
HS5 cells = experiment: MTT cell viability assay, HS5; assay type: cell-based, human; conditions: 100 μM
Procedure: (§1) Saos2, HeLa, HepG2, T98G, MCF-7 and HS-5 cells were purchased from American-type Culture Collection (ATCC, USA). Saos2 cells were cultured in Macyo's 5A medium supplemented with 15% v/v fetal bovine serum, 100 U/mL penicillin and 100 μg/mL streptomycin. HeLa, HepG2, T98G, MCF-7 cells were cultured in MEM Medium supplemented with 10% v/v fetal bovine serum, HS-5 cells were cultured in Dulbecco's Modified Eagle's medium (DMEM) supplemented with 10% v fetal bovine serum (FBS), 100 U/mL penicillin and 100 μg/mL streptomycin. All cells were cultured at 37° C. in a humidified atmosphere of 5% CO2.
For the MTT Assay, all cells were seeded in a 96-well plate with the density of 1*10^4 cells per-well (total medium volume of 100 μL). 24 hours post seeding, the solutions with a serial of concentrations (5 concentrations) of different precursors were added to each well. Cells without the treatment of the precursors were used as the control. At designated time (24/48/72 hours), 10 μL MTT solution (5 mg/mL) was added to each well and incubated at 37° C. for another 4 h, and then 100 μL of SDS-HCl solution was added to stop the reduction reaction and dissolve the purple formazan. The absorbance of each well at 595 nm was measured by a multimode microplate reader. The cytotoxicity assay was performed three times and the average value of the three measurements was taken. […]

Saos2 cells = experiment: MTT cell viability assay, Saos2; assay type: cell-based, human; conditions: for IC50 against Saos2 cells / IC50: unstimulated Saos2; for IC50: read-out: IC50 against Saos2 cells; for cytotoxicity against Saos2 cell: even at 500 μM; for cytotoxicity to Saos2 cells: formed from the precursor by exogenous ALP, concentrations up to 200 μM
Procedure: as §1
(§2) For the MTT Assay, all cells were seeded in a 96-well plate with the density of 1*10^4 cells per-well (total medium volume of 100 μL). 24 hours post seeding, the solutions with a serial of concentrations (5 concentrations) of different precursors were added to each well. Cells without the treatment of the precursors were used as the control. At designated time (24/48/72 hours), 10 μL MTT solution (5 mg/mL) was added to each well and incubated at 37° C. for another 4 h, and then 100 μL of SDS-HCl solution was added to stop the reduction reaction and dissolve the purple formazan. The absorbance of each well at 595 nm was measured by a multimode microplate reader. The cytotoxicity assay was performed three times and the average value of the three measurements was taken.
To investigate the cellular response to all the precursors, an MTT (3-(4,5-dimethylthiazol-2-yl)-2,5-diphenyl tetrazolium bromide) assay (Gerlier et al., J. Immunol. Methods 94:57 (1986), which is hereby incorporated by reference in its entirety) was first used to examine the viability of human osteosarcoma cells (Saos2, which expresses high level ALP (Farley et al., Metabolism 40:664 (1991), which is hereby incorporated by reference in its entirety)) cultured with the precursors. As a control, the viability of normal human bone marrow stromal cells (HS5) that express low level of ALP on cell surface was also examined (Zhou et al., Chem 1:246 (2016), which is hereby incorporated by reference in its entirety). […] In the presence of exogenous ALP, L-1P (or D-1P) turns into L-1 (or D-1), which is innocuous to Saos2 cells at the concentrations up to 200 μM. […] To investigate the retention of L-1 (or D-1) in the Saos2 cells, the cells were incubated with L-1P (D-1P, 50 μM) for different times. […] On the contrary, the concentration of D-1 decreases little after 6 h incubation. Moreover, the intracellular concentration of D-1 is 3.5 fold of that of L-1 at 6 h incubation, but the ratio increases to 10 fold at 24 h incubation (FIG. 8B).
Three kinds of established ALP inhibitors were used: L-phenylalanine (L-Phe) (Borgers, M. J., Histochem. Cytochem. 21:812 (1973), which is hereby incorporated by reference in its entirety), an efficient uncompetitive inhibitor of placental alkaline phosphatase (PLAP) levamisole, a well-known uncompetitive inhibitor of tissue-nonspecific alkaline phosphatase (TNAP) (Borgers, M. J., Histochem. Cytochem. 21:812 (1973), which is hereby incorporated by reference in its entirety) and CinnGEL 2Me (Zhu et al., Cancer Res. 67:10129 (2007), which is hereby incorporated by reference in its entirety), an inhibitor of protein tyrosine phosphatase (PTP1B) that localizes at the cytoplasmic face of the endoplasmic reticulum. […] Moreover, the PTP1B inhibitor (i.e., CinnGEL 2Me) is unable to rescue the cells, supporting the mechanism in FIG. 1 that EISA on the cell surface is the key processes for converting L-1P and D-1P to L-1 and D-1, respectively. To further confirm the role of ALPs on cell surface, the precursors were incubated together with ALP, which serves as an exogenous enzyme. The addition of ALP almost eliminates the cytotoxicity of the precursors. […]

ALP = ALP catalyzed dephosphorylation of the precursors; assay type: biochemical; conditions: alkaline phosphatase (ALP), isolated enzyme; substrate 0.1 wt %, ALP 0.1 U/mL, 37° C.; read-out: t1/2 of ALP catalyzed dephosphorylation (converted)
Procedure: After obtaining all the precursors in Example 1, their behaviors were evaluated for EISA in vitro by using TEM and static light scattering (SLS) to examine the nanostructures formed before and after the addition of ALP into the solutions of the precursors. […] As a contrast, D-1P (50 μM) forms slightly more regular fibrous structures with diameter of 8±2 nm, which then interact with each other to form dense 2D/3D networks. […] After 24 h, the percentages of enzymatic dephosphorylation of D-1P and L-1P are about 90% and 80%, respectively. […] After being formed by dephosphorylation, L-1 and D-1 form different nanostructures. […] Similar to L-1, D-1 forms aggregated hollow colloids with a larger mean diameter (106±2 nm) and slightly thicker layers (thickness of 6±2 nm). L-2P or D-2P (50 μM) forms amorphous aggregates after dissolving in PBS buffer (pH=7.4) (FIG. 5). While the addition of ALP converts L-2P to L-2 to form uniform nanofibers with diameter of 9±2 nm, the enzymatic conversion of D-2P to D-2 results in nanoscale aggregates with diameter of 16±2 nm. […] As a charged, steric-hindered motif being connected to the peptide backbone via a relatively flexible linker, TPP disrupts intermolecular packing to disfavor the formation of long nanofibers, but it promotes interparticle interaction to favor polymorphic aggregates before and after enzymatic dephosphorylation. […]

selected Saos2 cell line = experiment: MTT assay on selected Saos2 cells after five weeks stimulation; assay type: cell-based, human
Procedure: as §2
Based on the above mechanism of cell death showing that L-1P (or D-1P) activates multiple death signaling pathways, it is believed that cancer cells unlikely would be able to evolve resistance toward this multiple targeting strategy. […] Such a plasticity should minimize the path to drug resistance. […]

[1] = system: T1, L-2P (NBD-βA-FFpYK, L enantiomer, with acetyl on the ε-amine of lysine)
T1 sequence: XFFXK

[2] = system: T2, L-1P (NBD-βA-FFpYK, L enantiomer, with TPP on the ε-amino group of lysine)
T2 sequence: XFFXK

[3] = system: T3, D-1P (NBD-βA-FFpYK, D enantiomer, with TPP on the ε-amino group of lysine)
T3 sequence: XFFXK

[4] = system: T4, D-2P (NBD-βA-FFpYK, D enantiomer, with acetyl on the ε-amine of lysine)
T4 sequence: XFFXK

[5] = 100 μM, 48 h, with levamisole (1 mM)
[6] = 100 μM, 48 h, without inhibitor
[7] = 200 μM, 48 h, with levamisole (1 mM)
[8] = 200 μM, 48 h, without inhibitor
[9] = co-incubated with the targeting motif TPP (3), 48 h

O=C(CCC[P+](c1ccccc1)(c1ccccc1)c1ccccc1)NCCCC[C@H](NC(=O)[C@H](Cc1ccc(OP(=O)(O)O)cc1)NC(=O)[C@H](Cc1ccccc1)NC(=O)[C@H](Cc1ccccc1)NC(=O)CCNc1ccc([N+](=O)[O-])c2nonc12)C(=O)O [L-1P] ({NBD-βAla}-FF[pY]K(X1)-OH)
cytotoxicity against HS5 cells (HS5 cells): almost innocuous | cell viability of unstimulated Saos2 (Saos2 cells; 50 μM, 48 h): 71.7% | cell viability of Saos2 cells (Saos2 cells; [5]): 65.3% | cell viability of Saos2 cells (Saos2 cells; [6]): 21.6% | cell viability of Saos2 cells (Saos2 cells; [7]): 50.5% | cell viability of Saos2 cells (Saos2 cells; [8]): 2.1% | IC50 against Saos2 cells (Saos2 cells; 48 h): 76.1 ± 2.5 µg/mL | IC50 (Saos2 cells; 48 h): 61 ± 2 µM | half-life at 0.1 wt % (ALP): 68.4 min | cell viability of the selected cells (selected Saos2 cell line; 50 μM, 48 h, after five weeks stimulation): 20.5%

CC(=O)NCCCC[C@H](NC(=O)[C@H](Cc1ccc(OP(=O)(O)O)cc1)NC(=O)[C@H](Cc1ccccc1)NC(=O)[C@H](Cc1ccccc1)NC(=O)CCNc1ccc([N+](=O)[O-])c2nonc12)C(=O)O [L-2P] ({NBD-βAla}-FF[pY]K(Ac)-OH)
cytotoxicity against Saos2 cell (Saos2 cells; by itself, 48 h): hardly exhibits cytotoxicity | cytotoxicity against Saos2 cell (Saos2 cells; [9]): hardly exhibits cytotoxicity

O=C(CCC[P+](c1ccccc1)(c1ccccc1)c1ccccc1)NCCCC[C@H](NC(=O)[C@H](Cc1ccc(O)cc1)NC(=O)[C@H](Cc1ccccc1)NC(=O)[C@H](Cc1ccccc1)NC(=O)CCNc1ccc([N+](=O)[O-])c2nonc12)C(=O)O [L-1] ({NBD-βAla}-FFYK(X1)-OH)
cytotoxicity to Saos2 cells (Saos2 cells): innocuous

COC(=O)C[C@H](NC(=O)[C@H](C)NC(=O)[C@@H](NC(=O)OCc1ccccc1)C(C)C)C(=O)CF [zVAD-fmk, reference compound] (Cbz-Val-Ala-Asp(OMe)-CH2F)
toxicity on Saos2 cells (Saos2 cells; 45 μM, by itself): no toxicity

alkaline phosphatase
enzymatic conversion (dephosphorylation) seen by TEM [1]: the addition of ALP converts L-2P to L-2 to form uniform nanofibers | percentage of enzymatic dephosphorylation after 24 h [2]: the percentages of enzymatic dephosphorylation of D-1P and L-1P are about 90% and 80%, respectively | t1/2 of ALP catalyzed dephosphorylation (substrate 0.1 wt %, ALP 0.1 U/mL) [2]: The t1/2 was determined to be 0.55 h and 1.14 h for D-1P and L-1P, respectively | percentage of enzymatic dephosphorylation after 24 h [3]: the percentages of enzymatic dephosphorylation of D-1P and L-1P are about 90% and 80%, respectively | t1/2 of ALP catalyzed dephosphorylation (substrate 0.1 wt %, ALP 0.1 U/mL) [3]: The t1/2 was determined to be 0.55 h and 1.14 h for D-1P and L-1P, respectively | enzymatic conversion (dephosphorylation) seen by TEM [4]: the enzymatic conversion of D-2P to D-2 results in nanoscale aggregates

O=C(CCC[P+](c1ccccc1)(c1ccccc1)c1ccccc1)NCCCC[C@@H](NC(=O)[C@@H](Cc1ccc(OP(=O)(O)O)cc1)NC(=O)[C@@H](Cc1ccccc1)NC(=O)[C@@H](Cc1ccccc1)NC(=O)CCNc1ccc([N+](=O)[O-])c2nonc12)C(=O)O [D-1P] ({NBD-βAla}-[dF][dF][d(pY)][dK](X1)-OH)
cytotoxicity against HS5 cells (HS5 cells): almost innocuous | cell viability of Saos2 cells (Saos2 cells; [5]): 66.0% | cell viability of Saos2 cells (Saos2 cells; [6]): 11.5% | cell viability of Saos2 cells (Saos2 cells; [7]): 53.3% | cell viability of Saos2 cells (Saos2 cells; [8]): 1.8% | IC50 against Saos2 cells (Saos2 cells; 48 h): 57.4 ± 2.5 µg/mL | IC50 (Saos2 cells; 48 h): 46 ± 2 µM | half-life at 0.1 wt % (ALP): 33 min | IC50 (selected Saos2 cell line; cells selected by five weeks stimulation of D-1P (10 to 50 μM), read-out: IC50 against Saos2 cells after five weeks stimulation): 35.2 µM

O=C(CCC[P+](c1ccccc1)(c1ccccc1)c1ccccc1)NCCCC[C@@H](NC(=O)[C@@H](Cc1ccc(O)cc1)NC(=O)[C@@H](Cc1ccccc1)NC(=O)[C@@H](Cc1ccccc1)NC(=O)CCNc1ccc([N+](=O)[O-])c2nonc12)C(=O)O [D-1] ({NBD-βAla}-[dF][dF][dY][dK](X1)-OH)
cytotoxicity to Saos2 cells (Saos2 cells): innocuous

CC(=O)NCCCC[C@@H](NC(=O)[C@@H](Cc1ccc(OP(=O)(O)O)cc1)NC(=O)[C@@H](Cc1ccccc1)NC(=O)[C@@H](Cc1ccccc1)NC(=O)CCNc1ccc([N+](=O)[O-])c2nonc12)C(=O)O [D-2P] ({NBD-βAla}-[dF][dF][d(pY)][dK](Ac)-OH)
cytotoxicity against Saos2 cell (Saos2 cells; by itself, 48 h): hardly exhibits cytotoxicity | cytotoxicity against Saos2 cell (Saos2 cells; [9]): hardly exhibits cytotoxicity
